Laboratory results from patent US8609692B2, “TRPV1 antagonists” (AbbVie Inc., priority 2008, dated 2013).
pIC50: −log10 of the molar value.

How the values were obtained:
[1] = molecular target: T1, human TRPV1 receptor (hTRPV1) (Homo sapiens, UniProt Q8NER1); experiment: Capsaicin activation assay (Ca2+ influx, FLIPR); type: cell-based; settings: 0.05 μM capsaicin, 1321N1 cells expressing hTRPV1
T1 construct: expressed in transfected cells
Protocol: Dulbecco's modified Eagle medium (D-MEM) (with 4.5 mg/mL glucose) and fetal bovine serum were obtained from Hyclone Laboratories, Inc. (Logan, Utah). Dulbecco's phosphate-buffered saline (D-PBS) (with 1 mg/mL glucose and 3.6 mg/l Na pyruvate, without phenol red), L-glutamine, hygromycin B, and Lipofectamine® were obtained from Life Technologies (Grand Island, N.Y.). G418 sulfate was obtained from Calbiochem-Novabiochem Corp. (San Diego, Calif.). Capsaicin (8-methyl-N-vanillyl-6-nonenamide) was obtained from Sigma-Aldrich, Co. (St. Louis, Mo.). Fluo-4 AM (N-[4-[6-[(acetyloxy)methoxy]-2,7-difluoro-3-oxo-3H-xanthen-9-yl]-2-[2-[2-[bis[2-[(acetyloxy)methoxy]-2-oxyethyl]amino]-5-methyl-phenoxy]ethoxy]phenyl]-N-[2-[(acetyloxy)methoxy]-2-oxyethyl]-glycine, (acetyloxy)methyl ester) was purchased from Molecular Probes (Eugene, Oreg.).
The cDNAs for the human TRPV1 receptor (hTRPV1) were isolated by reverse transcriptase-polymerase chain reaction (RT-PCR) from human small intestine poly A+RNA supplied by Clontech (Palo Alto, Calif.) using primers designed surrounding the initiation and termination codons identical to the published sequences (Hayes et al. Pain 2000, 88, 205-215). The resulting cDNA PCR products were subcloned into pCIneo mammalian expression vector (Promega) and fully sequenced using fluorescent dye-terminator reagents (Prism, Perkin-Elmer Applied Biosystems Division) and a Perkin-Elmer Applied Biosystems Model 373 DNA sequencer or Model 310 genetic analyzer. Expression plasmids encoding the hTRPV1 cDNA were transfected individually into 1321N1 human astrocytoma cells using Lipofectamine®. Forty-eight hours after transfection, the neomycin-resistant cells were selected with growth medium containing 800 μg/mL Geneticin (Gibco BRL). Surviving individual colonies were isolated and screened for TRPV1 receptor activity. Cells expressing recombinant homomeric TRPV1 receptors were maintained at 37° C. in D-MEM containing 4 mM L-glutamine, 300 μg/mL G418 (Cal-biochem) and 10% fetal bovine serum under a humidified 5% CO2 atmosphere.
The functional activity of compounds at the TRPV1 receptor was determined with a Ca^2+ influx assay and measurement of intracellular Ca^2+ levels ([Ca^2+]i). All compounds were tested over an 11-point half-log concentration range. Compound solutions were prepared in D-PBS (4× final concentration), and diluted serially across 96-well v-bottom tissue culture plates using a Biomek 2000 robotic automation workstation (Beckman-Coulter, Inc., Fullerton, Calif.). A 0.2 μM solution of the TRPV1 agonist capsaicin was also prepared in D-PBS. The fluorescent Ca^2+ chelating dye Fluo-4 AM was used as an indicator of the relative levels of [Ca^2+]i in a 96-well format using a Fluorescence Imaging Plate Reader (FLIPR) (Molecular Devices, Sunnyvale, Calif.). Cells were grown to confluency in 96-well black-walled tissue culture plates. Then, prior to the assay, the cells were loaded with 100 μL per well of Fluo-4 AM (2 μM, in D-PBS) for 1-2 hours at 23° C. Washing of the cells was performed to remove extracellular Fluo-4 AM (2×1 mL D-PBS per well), and afterward, the cells were placed in the reading chamber of the FLIPR instrument. 50 μL of the compound solutions were added to the cells at the 10 second time mark of the experimental run. Then, after a 3-minute time delay, 50 μL of the capsaicin solution was added at the, 190 second time mark (0.05 μM final concentration)(final volume=200 μL) to challenge the TRPV1 receptor. Time length of the experimental run was 240 seconds. Fluorescence readings were made at 1 to 5 second intervals over the course of the experimental run. The peak increase in relative fluorescence units (minus baseline) was calculated from the 190 second time mark to the end of the experimental run, and expressed as a percentage of the 0.05 μM capsaicin (control) response. […]

[2] = Rat telemetry protocol (core body temperature); type: in vivo; settings: core body temperature of rats at one hour post dosing (100 μmol/kg, p.o.), relative to vehicle
Protocol: Male, Sprague Dawley rats, 225-250 grams were anesthetized with Sevoflurane (Abbott Laboratories). Rats were placed on a heating pad and covered with a sterile surgical drape. A ventral midline abdominal incision was made and sterile cotton tip applicators were used to gently move internal tissue and expose the abdominal aorta for implantation of the telemetry catheter (Data Sciences International; TL11M2-050-PXT). Blood flow was temporarily stopped to the lower extremities (5-7 min) with Diffenbach clamps to allow the insertion of the telemetry catheter into the abdominal aorta. Once inserted, a sterile cellulose patch was placed over the catheter/aorta and secured using a small amount of tissue adhesive (Vetbond, 3M). Once catheter placement was complete, the clamps were removed and blood flow was restored to the lower extremities. The transmitter was placed in the intraperitoneal cavity. The transmitter suture rib was sewn into the abdominal sutures to secure it in place. The skin was closed using sterile wound clips and the animal removed from Sevoflurane. Buprenex ([…] s.c.; Phoenix) was administered for post-operative analgesia. Animals were maintained on a heating pad until ambulatory, and then individually housed with food and water ad lib. Surgical staples were removed after 7-10 days post-implantation. Rats were allowed a 2-week post-surgical recovery period before treatment with test compound. Oral dosing (p.o.) was at time zero, with rats receiving a single dose of vehicle (10% EtOH, 20% Tween-80, 70% PEG-400) or a 100 μmol/kg dose of compound dissolved in vehicle. Temperature measurements were recorded every 15 minutes for the duration of the study (24 hours).
The term “core body temperature” as used herein, means the temperature measured in the intraperitoneal cavity.

T1 sequence (Q8NER1 whole entry): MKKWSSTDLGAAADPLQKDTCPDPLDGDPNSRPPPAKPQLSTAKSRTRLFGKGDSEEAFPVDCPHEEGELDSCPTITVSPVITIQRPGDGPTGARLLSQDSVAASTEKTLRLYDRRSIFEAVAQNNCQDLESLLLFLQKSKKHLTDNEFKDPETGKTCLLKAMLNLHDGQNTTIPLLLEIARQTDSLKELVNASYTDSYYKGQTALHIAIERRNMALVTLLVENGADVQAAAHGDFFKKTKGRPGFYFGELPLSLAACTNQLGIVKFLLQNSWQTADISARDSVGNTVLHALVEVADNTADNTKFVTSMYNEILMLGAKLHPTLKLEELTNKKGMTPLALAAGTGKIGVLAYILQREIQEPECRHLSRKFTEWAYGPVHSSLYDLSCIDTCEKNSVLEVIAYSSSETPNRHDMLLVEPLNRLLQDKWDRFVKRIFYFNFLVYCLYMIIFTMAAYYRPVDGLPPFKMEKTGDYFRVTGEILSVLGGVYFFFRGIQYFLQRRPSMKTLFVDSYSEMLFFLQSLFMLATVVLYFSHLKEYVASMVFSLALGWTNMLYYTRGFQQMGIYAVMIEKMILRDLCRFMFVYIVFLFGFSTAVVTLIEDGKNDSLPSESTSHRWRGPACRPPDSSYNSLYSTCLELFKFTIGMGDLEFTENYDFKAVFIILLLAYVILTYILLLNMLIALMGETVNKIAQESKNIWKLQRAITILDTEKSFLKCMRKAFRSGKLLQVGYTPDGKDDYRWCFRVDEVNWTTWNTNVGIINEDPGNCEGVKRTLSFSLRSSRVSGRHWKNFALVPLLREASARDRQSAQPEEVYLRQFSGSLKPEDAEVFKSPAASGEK

SMILES	pIC50 [1]	Δ Temp [2] [°C]
CCC1(CC)C[C@@H](NC(=O)Nc2cccc3c2cnn3C)c2cc(F)cc(F)c2O1 [Example 60, N-[(4R)-2,2-diethyl-6,8-difluoro-3,4-dihydro-2H-chromen-4-yl]-N′-(1-methyl-1H-indazol-4-yl)urea]	7.66	0.7
O=C(Nc1cccc2[nH]ncc12)N[C@@H]1CCOc2c1cccc2C(F)(F)F [Example 63, N-1H-indazol-4-yl-N′-[(4R)-8-(trifluoromethyl)-3,4-dihydro-2H-chromen-4-yl]urea]	8.00	1.0
CCC1(CC)C[C@@H](NC(=O)Nc2cccc3c2C[C@H](O)CC3)c2ccc(F)cc2O1 [Example 74, N-[(4R)-2,2-diethyl-7-fluoro-3,4-dihydro-2H-chromen-4-yl]-N′-[(7R)-7-hydroxy-5,6,7,8-tetrahydronaphthalen-1-yl]urea]	7.89	0.9
CCC1(CC)C[C@@H](NC(=O)Nc2cccc3c2C[C@H](O)CC3)c2ccc(Cl)cc2O1 [Example 75, N-[(4R)-7-chloro-2,2-diethyl-3,4-dihydro-2H-chromen-4-yl]-N′-[(7R)-7-hydroxy-5,6,7,8-tetrahydronaphthalen-1-yl]urea]	8.00	1.0
CCC1(CC)C[C@@H](NC(=O)Nc2cccc3c2cnn3C)c2cccc(C(F)(F)F)c2O1 [Example 77, N-[(4R)-2,2-diethyl-8-(trifluoromethyl)-3,4-dihydro-2H-chromen-4-yl]-N′-(1-methyl-1H-indazol-4-yl)urea]	7.43	1.0
CCC1(CC)C[C@@H](NC(=O)Nc2cccc3c2cnn3C)c2ccc(Cl)cc2O1 [Example 78, N-[(4R)-7-chloro-2,2-diethyl-3,4-dihydro-2H-chromen-4-yl]-N′-(1-methyl-1H-indazol-4-yl)urea]	7.89	0.6
CCC1(CC)C[C@@H](NC(=O)Nc2cccc3ccncc23)c2ccc(F)cc2O1 [Example 82, N-[(4R)-2,2-diethyl-7-fluoro-3,4-dihydro-2H-chromen-4-yl]-N′-isoquinolin-8-ylurea]	7.74	1.5

Now those with a higher pIC50 [1], led by results:

pIC50 [1]	SMILES	Δ Temp [2] [°C]
8.05	CCC1(CC)C[C@@H](NC(=O)Nc2cccc3c2C[C@@H](O)CC3)c2ccc(F)cc2O1 [Example 71, N-[(4R)-2,2-diethyl-7-fluoro-3,4-dihydro-2H-chromen-4-yl]-N′-[(7S)-7-hydroxy-5,6,7,8-tetrahydronaphthalen-1-yl]urea]	0.5
8.15	CCCC1(CCC)C[C@@H](NC(=O)Nc2cccc3c2C[C@H](O)CC3)c2cc(F)ccc2O1 [Example 72, N-[(4R)-6-fluoro-2,2-dipropyl-3,4-dihydro-2H-chromen-4-yl]-N′-[(7R)-7-hydroxy-5,6,7,8-tetrahydronaphthalen-1-yl]urea]	0.7
8.05	CCC1(CC)C[C@@H](NC(=O)Nc2cccc3c2C[C@@H](O)CC3)c2cc(F)ccc2O1 [Example 73, N-[(4R)-2,2-diethyl-6-fluoro-3,4-dihydro-2H-chromen-4-yl]-N′-[(7S)-7-hydroxy-5,6,7,8-tetrahydronaphthalen-1-yl]urea]	0.9
8.05	CCC1(CC)C[C@@H](NC(=O)Nc2cccc3c2C[C@@H](O)CC3)c2ccc(Cl)cc2O1 [Example 76, N-[(4R)-7-chloro-2,2-diethyl-3,4-dihydro-2H-chromen-4-yl]-N′-[(7S)-7-hydroxy-5,6,7,8-tetrahydronaphthalen-1-yl]urea]	1.3
8.40	Cn1ncc2c(NC(=O)N[C@@H]3CCOc4c(OC(F)(F)F)cccc43)cccc21 [Example 79, N-(1-methyl-1H-indazol-4-yl)-N′-[(4R)-8-(trifluoromethoxy)-3,4-dihydro-2H-chromen-4-yl]urea]	1.5
8.10	Cc1cc2c(NC(=O)N[C@@H]3CC(C)(C)Oc4cc(OC(F)(F)F)ccc43)cccc2cn1 [Example 80, N-[(4R)-2,2-dimethyl-7-(trifluoromethoxy)-3,4-dihydro-2H-chromen-4-yl]-N′-(3-methylisoquinolin-5-yl)urea]	1.7
